Measurements taken from PubChem BioAssay AID330 (DTP/NCI, 2004).
Several values for one entry are separate records, joined by “and”; a condition that tells them apart may be missing. Identical values can stand only once. Toxic doses and inconclusive results are not listed.

Tested on: P388 leukemia ip, CD2F1 mice, survival T/C
Test: NCI In Vivo Anticancer Drug Screen. Data for tumor model P388 Leukemia (intraperitoneal) in CD2F1 (CDF1) mice
Details: endpoint: median survival time, higher = longer survival
Method in brief: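 Mice carrying the transplanted tumor received test compound or vehicle. Survival was recorded in each group, and the value is the treated-group measurement divided by that of the vehicle-treated control group.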

[1] = dose: 12.5 mg/kg/injection, schedule: Q01DX005 (ip), vehicle: saline with Tween-80
[2] = dose: 100.0 mg/kg/injection, schedule: Q04DX003 (ip), vehicle: saline
[3] = dose: 200.0 mg/kg/injection, schedule: Q04DX003 (ip), vehicle: saline
[4] = dose: 400.0 mg/kg/injection, schedule: Q04DX003 (ip), vehicle: saline
[5] = dose: 50.0 mg/kg/injection, schedule: Q01DX005 (ip), vehicle: saline with Tween-80
[6] = dose: 100.0 mg/kg/injection, schedule: Q01DX005 (ip), vehicle: saline with Tween-80
[7] = dose: 200.0 mg/kg/injection, schedule: Q01DX005 (ip), vehicle: saline with Tween-80
[8] = dose: 50.0 mg/kg/injection, schedule: Q01DX009 (ip), vehicle: Klucel (hydroxypropylcellulose) (HPC)
[9] = dose: 100.0 mg/kg/injection, schedule: Q01DX009 (ip), vehicle: Klucel (hydroxypropylcellulose) (HPC)
[10] = dose: 200.0 mg/kg/injection, schedule: Q01DX009 (ip), vehicle: Klucel (hydroxypropylcellulose) (HPC)
[11] = dose: 50.0 mg/kg/injection, schedule: Q01DX005 (ip), vehicle: Klucel (hydroxypropylcellulose) (HPC)
[12] = dose: 100.0 mg/kg/injection, schedule: Q01DX005 (ip), vehicle: Klucel (hydroxypropylcellulose) (HPC)
[13] = dose: 200.0 mg/kg/injection, schedule: Q01DX005 (ip), vehicle: Klucel (hydroxypropylcellulose) (HPC)
[14] = dose: 25.0 mg/kg/injection, schedule: Q01DX005 (ip), vehicle: saline with Tween-80
[15] = dose: 50.0 mg/kg/injection, schedule: Q01DX009 (ip), vehicle: saline with Tween-80
[16] = dose: 100.0 mg/kg/injection, schedule: Q01DX009 (ip), vehicle: saline with Tween-80
[17] = dose: 200.0 mg/kg/injection, schedule: Q01DX009 (ip), vehicle: saline with Tween-80
[18] = dose: 12.5 mg/kg/injection, schedule: Q01DX009 (ip), vehicle: saline with Tween-80
[19] = dose: 25.0 mg/kg/injection, schedule: Q01DX009 (ip), vehicle: saline with Tween-80

C/C(=N\NC(=S)N1CCN(c2ccccn2)CC1)c1ncccn1
T/C (dose: 3.13 mg/kg/injection, schedule: Q01DX005 (ip), vehicle: saline with Tween-80): 115 % of control | T/C (dose: 6.25 mg/kg/injection, schedule: Q01DX005 (ip), vehicle: saline with Tween-80): 122 % of control and 123 % of control | T/C [1]: 95 % of control

CC1(C(N)=O)CO1 (centres undefined)
T/C [2]: 103 % of control | T/C [3]: 100 % of control | T/C [4]: 100 % of control

CC1=C(O[Si](C)(C)C)CCC1=O
T/C [5]: 113 % of control | T/C [6]: 105 % of control | T/C [7]: 106 % of control

NC(=O)c1cnn(CCOS(=O)(=O)O)c1N
T/C (dose: 12.5 mg/kg/injection, schedule: Q01DX009 (ip), vehicle: water): 103 % of control | T/C (dose: 25.0 mg/kg/injection, schedule: Q01DX009 (ip), vehicle: water): 101 % of control | T/C (dose: 50.0 mg/kg/injection, schedule: Q01DX009 (ip), vehicle: water): 108 % of control | T/C (dose: 100.0 mg/kg/injection, schedule: Q01DX009 (ip), vehicle: water): 107 % of control | T/C (dose: 200.0 mg/kg/injection, schedule: Q01DX009 (ip), vehicle: water): 103 % of control

ClC(Cl)(Cl)C(c1ccc(Br)cc1)c1ccc(Br)cc1
T/C (dose: 60.0 mg/kg/injection, schedule: Q01DX005 (ip), vehicle: saline with Tween-80): 95 % of control | T/C (dose: 120.0 mg/kg/injection, schedule: Q01DX005 (ip), vehicle: saline with Tween-80): 94 % of control | T/C (dose: 240.0 mg/kg/injection, schedule: Q01DX005 (ip), vehicle: saline with Tween-80): 95 % of control

Cc1nccc2nnc(C)n12
T/C [2]: 98 % of control | T/C [3]: 98 % of control | T/C [4]: 95 % of control

CSc1nsc(SC)c1-c1ccc(Cl)cc1
T/C [8]: 99 % of control | T/C [9]: 100 % of control | T/C [10]: 92 % of control

NC(=S)c1cccc(/C=N/n2cnnc2)c1
T/C (dose: 100.0 mg/kg/injection, schedule: Q04DX003 (ip), vehicle: Klucel (hydroxypropylcellulose) (HPC)): 97 % of control | T/C (dose: 200.0 mg/kg/injection, schedule: Q04DX003 (ip), vehicle: Klucel (hydroxypropylcellulose) (HPC)): 93 % of control | T/C (dose: 400.0 mg/kg/injection, schedule: Q04DX003 (ip), vehicle: Klucel (hydroxypropylcellulose) (HPC)): 90 % of control

CC[C@@]1(CCC(=O)OC)CCC(=O)N2CC[C@@]3(C(=O)Nc4ccccc43)[C@@H]21
T/C [11]: 100 % of control | T/C [12]: 95 % of control | T/C [13]: 91 % of control

CCCCC(CC)OC(=O)c1cccc(C(=O)O)c1 (centres undefined)
T/C (dose: 100.0 mg/kg/injection, schedule: Q01DX001 (ip), vehicle: saline with Tween-80): 115 % of control | T/C (dose: 200.0 mg/kg/injection, schedule: Q01DX001 (ip), vehicle: saline with Tween-80): 97 % of control

COC(=O)CCC(Cl)(Cl)Cl
T/C [8]: 102 % of control | T/C [9]: 102 % of control | T/C [10]: 100 % of control

O=C(N/N=C/c1cccc(O)c1O)N/N=C/c1cccc(O)c1O
T/C (dose: 25.0 mg/kg/injection, schedule: Q01DX009 (ip), vehicle: distilled water + Tween-80): 104 % of control and 109 % of control | T/C (dose: 50.0 mg/kg/injection, schedule: Q01DX009 (ip), vehicle: distilled water + Tween-80): 109 % of control (2×) and 116 % of control | T/C (dose: 100.0 mg/kg/injection, schedule: Q01DX009 (ip), vehicle: distilled water + Tween-80): 118 % of control and 119 % of control | T/C (dose: 200.0 mg/kg/injection, schedule: Q01DX009 (ip), vehicle: distilled water + Tween-80): 118 % of control and 95 % of control | T/C (dose: 400.0 mg/kg/injection, schedule: Q01DX009 (ip), vehicle: distilled water + Tween-80): 91 % of control

O=C(c1cccnc1)C(CCc1ccccn1)c1ccccn1 (centres undefined)
T/C [2]: 100 % of control | T/C [3]: 100 % of control

O=S1(=O)CC(N2CCOCC2)C2=C(O1)c1ccccc1OCC2 (centres undefined)
T/C [11]: 98 % of control | T/C [12]: 97 % of control | T/C [13]: 88 % of control

CCCCC(S)CS (centres undefined)
T/C [1]: 107 % of control | T/C [14]: 103 % of control | T/C [5]: 107 % of control and 110 % of control

NC(=S)NC(=O)c1cccs1
T/C [15]: 95 % of control | T/C [16]: 94 % of control | T/C [17]: 93 % of control

CN(C=C(C#N)C#N)c1ccccc1
T/C [18]: 103 % of control | T/C [19]: 99 % of control | T/C [15]: 99 % of control

O=[N+]([O-])c1cccc2ccc(N/N=C/c3ccccc3O)nc12
T/C [8]: 94 % of control | T/C [15]: 86 % of control | T/C [9]: 87 % of control and 91 % of control | T/C [16]: 93 % of control | T/C [17]: 88 % of control | T/C (dose: 400.0 mg/kg/injection, schedule: Q01DX009 (ip), vehicle: saline with Tween-80): 89 % of control

CCCCCNCC(=O)N1CCCC1C(=O)OC(C)(C)C (centres undefined)
T/C [5]: 97 % of control | T/C [6]: 105 % of control | T/C [7]: 103 % of control

O=C1CSC(=Nc2ccccc2F)N1c1ccccc1F
T/C [8]: 110 % of control | T/C [9]: 107 % of control

N#[N+]c1ccc2c(S(=O)(=O)Nc3ccc(-c4ccc(NS(=O)(=O)c5cccc6c([O-])c([N+]#N)ccc56)cc4)cc3)cccc2c1[O-]
T/C [8]: 102 % of control | T/C [9]: 99 % of control | T/C [10]: 98 % of control

CC(C)(C)OC(=O)NC(CC(Cc1ccccc1)C(=O)O)C(=O)NC(CC(Cc1ccccc1)C(=O)O)C(=O)NC(CC(Cc1ccccc1)C(=O)O)C(=O)NCC(=O)Oc1ccc([N+](=O)[O-])cc1 (centres undefined)
T/C [1]: 99 % of control | T/C [14]: 91 % of control | T/C [5]: 89 % of control

CC1(C)N=C(N)N=C(N)N1c1ccc(OCC(=O)Nc2ccc(S(=O)(=O)F)cc2)c(Cl)c1
T/C (dose: 50.0 mg/kg/injection, schedule: Q04DX003 (ip), vehicle: saline): 159 % of control | T/C [2]: 163 % of control and 175 % of control | T/C [3]: 177 % of control and 190 % of control | T/C [4]: 115 % of control

CC(=O)Oc1c(OC(C)=O)c(C=O)c2c(OC(C)=O)c(-c3c(C)cc4c(C(C)C)c(OC(C)=O)c(OC(C)=O)c(C=O)c4c3OC(C)=O)c(C)cc2c1C(C)C
T/C (dose: 12.5 mg/kg/injection, schedule: Q01DX005 (ip), vehicle: Klucel (hydroxypropylcellulose) (HPC)): 102 % of control | T/C (dose: 25.0 mg/kg/injection, schedule: Q01DX005 (ip), vehicle: Klucel (hydroxypropylcellulose) (HPC)): 107 % of control | T/C [11]: 103 % of control and 111 % of control

N#CC(=C1N=c2ccccc2=N1)c1[nH]c(O)c2ccccc12
T/C (dose: 6.25 mg/kg/injection, schedule: Q01DX009 (ip), vehicle: saline with Tween-80): 93 % of control | T/C [18]: 91 % of control | T/C [19]: 94 % of control

COc1cc2c(c(OC)c1O)-c1ccc(SC)c(=O)cc1C(NC(C)=O)CC2 (centres undefined)
T/C (dose: 1.25 mg/kg/injection, schedule: Q01DX009 (ip), vehicle: saline): 117 % of control

Cn1c(=O)c2nc(-c3ccccc3)nnc2n(CCO)c1=O
T/C (dose: 100.0 mg/kg/injection, schedule: Q04DX002 (ip), vehicle: Klucel (hydroxypropylcellulose) (HPC)): 105 % of control | T/C (dose: 200.0 mg/kg/injection, schedule: Q04DX002 (ip), vehicle: Klucel (hydroxypropylcellulose) (HPC)): 106 % of control | T/C (dose: 400.0 mg/kg/injection, schedule: Q04DX002 (ip), vehicle: Klucel (hydroxypropylcellulose) (HPC)): 110 % of control

Oc1[nH]c2ccccc2c1N=NC(=S)NC1C2CC3CC(C2)CC1C3 (centres undefined)
T/C [5]: 103 % of control | T/C [6]: 100 % of control | T/C [7]: 103 % of control

O=c1[nH]c(Cl)nc2nc(Cl)[nH]c12
T/C [11]: 100 % of control | T/C [12]: 101 % of control | T/C [13]: 100 % of control

O=C(OC1(c2nccc3ccccc23)CCCCC1)c1ccccc1
T/C (dose: 25.0 mg/kg/injection, schedule: Q01DX009 (ip), vehicle: Klucel (hydroxypropylcellulose) (HPC)): 97 % of control | T/C [8]: 93 % of control | T/C (dose: 100.0 mg/kg/injection, schedule: Q01DX001 (ip), vehicle: Klucel (hydroxypropylcellulose) (HPC)): 103 % of control | T/C (dose: 200.0 mg/kg/injection, schedule: Q01DX001 (ip), vehicle: Klucel (hydroxypropylcellulose) (HPC)): 94 % of control | T/C (dose: 400.0 mg/kg/injection, schedule: Q01DX001 (ip), vehicle: Klucel (hydroxypropylcellulose) (HPC)): 92 % of control

COCC1(O)C=CC(=O)O1 (centres undefined)
T/C (dose: 50.0 mg/kg/injection, schedule: Q01DX005 (ip), vehicle: saline): 105 % of control

CCn1c(=O)c2[nH]c(=S)[nH]c2n(C2CC2)c1=O
T/C [8]: 97 % of control | T/C [9]: 101 % of control | T/C [10]: 113 % of control
